Measurements: the NIST ThermoML archive (doi:10.1016/j.jct.2013.05.003)

Experiment: xn = mol fraction of the nth substance listed
Conditions: 101.3 kPa, Liquid, fixed-path interferometer

CCOCCCN [3-ethoxy-1-propanamine] + O
speed of sound [m/s]
Conditions | 283.15 K | 288.15 K | 293.15 K | 298.15 K | 303.15 K
x1 = 0.0001081 | 1448.8 | 1466.3 | 1483.4 | 1497.2 | 1509.6
x1 = 0.0003191 | 1450 | 1467.4 | 1484.5 | 1498 | 1510.4
x1 = 0.0006252 | 1451.8 | 1469.1 | 1486 | 1499.4 | 1511.6
x1 = 0.000707 | 1452.2 | – | – | – | –
x1 = 0.0009424 | 1453.7 | 1470.9 | 1486.9 | 1500.9 | 1512.8
x1 = 0.001046 | 1454.2 | – | – | – | –
x1 = 0.001284 | 1455.6 | 1472.6 | 1489.1 | 1502.2 | 1514.2
x1 = 0.001947 | 1459.5 | 1476.2 | 1491.7 | 1505.4 | 1516.8
x1 = 0.002912 | 1465.1 | 1481.3 | 1496.4 | 1509.6 | 1520.7
x1 = 0.00392 | 1470.9 | 1486.6 | 1501.2 | 1514 | 1524.7
x1 = 0.005098 | 1477.6 | 1492.8 | 1506.8 | 1519 | 1529.2
x1 = 0.007456 | 1491 | 1505 | – | – | –
x1 = 0.00981 | 1504 | 1516.7 | 1528.6 | 1538.8 | 1547.2
x1 = 0.0148 | 1530.2 | 1540.6 | 1550.3 | 1558.4 | 1565
x1 = 0.01956 | 1554 | 1562.9 | 1569.7 | 1576 | 1580.7
x1 = 0.02832 | 1594.2 | 1599 | 1602.1 | 1604.7 | 1606.4
x1 = 0.03914 | 1636.5 | 1636.7 | 1635.3 | 1633.7 | 1631.8
x1 = 0.05082 | 1672.1 | 1668 | 1662.5 | 1657.2 | 1651.3
x1 = 0.06674 | 1704.8 | 1695.7 | 1685.7 | 1676.2 | 1666.3
x1 = 0.09536 | 1724 | 1709.3 | 1695.7 | 1681.6 | 1667.7
x1 = 0.1209 | 1715.9 | 1700.4 | 1684.2 | 1668.3 | 1653.1
x1 = 0.1452 | 1699.3 | 1682.6 | 1666.7 | 1650.2 | 1633.9
x1 = 0.1844 | 1669 | 1651.6 | 1634.3 | 1617.3 | 1600.4
x1 = 0.2121 | 1645.8 | 1627.7 | 1610.5 | 1593.4 | 1576.1
x1 = 0.2438 | 1623.7 | 1604.4 | 1587.9 | 1569.9 | 1552.3
x1 = 0.2923 | 1593 | 1575 | 1557.5 | 1539.4 | 1521.5
x1 = 0.361 | 1556.4 | 1535.7 | 1518.2 | 1499.2 | 1480.9
x1 = 0.4369 | 1524.2 | 1504.5 | 1485.9 | 1466.9 | 1448.1
x1 = 0.493 | – | – | 1461.7 | 1442.5 | –
x1 = 0.4937 | 1501.5 | 1481 | 1461.8 | 1442.6 | 1423.4
x1 = 0.5513 | 1482.2 | 1461.9 | 1442.2 | 1422.7 | 1403.3
x1 = 0.6214 | 1462.5 | 1441.5 | 1421.8 | 1402 | 1382.3
x1 = 0.6775 | 1448.2 | 1426.9 | 1407.3 | 1386.7 | 1366.7
x1 = 0.6943 | 1444.5 | 1423.4 | 1402.9 | 1383.1 | 1363.1
x1 = 0.7458 | 1432.9 | 1411.3 | 1391.1 | 1370.8 | 1350.5
x1 = 0.7733 | 1427.7 | – | 1385.3 | 1365.2 | 1344.8
x1 = 0.7947 | 1422.9 | 1401.1 | 1380.6 | 1360.2 | 1339.8
x1 = 0.8276 | 1416.8 | 1395.1 | 1374.1 | 1353.6 | 1333.2
x1 = 0.8488 | 1412.3 | 1390.7 | – | 1349.3 | –
x1 = 0.8744 | 1408.1 | – | 1365.1 | 1344.6 | 1324
x1 = 0.8993 | 1403 | 1381.5 | 1360 | 1339.3 | 1319.2
x1 = 0.9189 | 1399.9 | 1378 | 1356.7 | 1335.6 | 1315.1
x1 = 0.9349 | – | 1375 | – | – | –
x1 = 0.9411 | 1395.9 | – | 1352.4 | 1331.8 | 1311.1
x1 = 0.9436 | – | 1373.5 | – | – | –
x1 = 0.9486 | 1394.8 | – | 1351.3 | 1330.7 | 1309.8
x1 = 0.9551 | – | 1371.3 | – | – | –
x1 = 0.9601 | 1392.6 | 1370.4 | – | – | –
x1 = 0.9613 | – | – | 1349 | 1327.9 | 1307.3
x1 = 0.9746 | – | 1367.5 | – | 1325.7 | 1304.7
x1 = 0.9755 | – | 1367.8 | – | – | –
x1 = 0.985 | 1391 | 1366.2 | – | – | –
x1 = 0.9871 | – | – | 1344.3 | 1321.5 | 1302.4
x1 = 1 | 1386.4 | 1364.2 | 1342 | 1321.2 | 1300.4
